Data reported in US9205161B2, “Disinfecting composition comprising a chloramine bleaching agent for removable dental appliances” (LMA Solutions, Inc., priority 2014, dated 2015).

Tested on: BL21 E. coli cells
Assay: Bacterial kill after contact in LB broth, plating on LB agar
Assay type: cell-based
Conditions: 15 min exposure at 37° C.; for % Reduction Product / CFU/ml Product / Log reduction Product: MES 25 μM, NaDCC 0.9 mg/ml
Protocol: A working suspension of BL21 E. coli cells in LB broth (1.16×10^8 CFU/ml) was contacted for 15 min at 37° C. with either 1×PBS buffer (control), 2-(N-morpholino)ethanesulfonic acid (“MES”) (final conc. of 25 μM or 0.0049 mg/ml), Sodium Dichloroisocyanurate (“NaDCC”) (final conc. of 0.9 mg/ml), or MES (final conc. of 25 μM or 0.0049 mg/ml)+NaDCC (final conc. of 0.9 mg/ml). Lysogeny broth (LB), a nutritionally rich medium, is primarily used for the growth of bacteria.
After contact, ten-fold serial dilutions from 1:10 to 1:10^6 were prepared using D/E neutralizing broth and an aliquot at each dilution (100 μl) was plated onto an LB agar plate and incubated for 20 hours at 37° C.
The plate shown in FIG. 1A corresponds to treatments with MES-only at a plating dilution of 1:1×10^4. The plate shown in FIG. 1B corresponds to treatments with NaDCC-only at a plating dilution of 1:10. The plate shown FIG. 1C corresponds to treatment with MES+NaDCC at plating dilution of 1:10.

SMILES: O=S(=O)(O)CCN1CCOCC1 [MES only, 2-(N-morpholino)ethanesulfonic acid]
- Plate count (CFU) (plate dilution 1:1.0E+05, 100 ul plated): 128 CFU
- % Reduction Product: −10.3448%
- CFU/ml Product: 1.28E+08 CFU/ml
- Log reduction Product: −0.04

SMILES: O=c1nc([O-])n(Cl)c(=O)n1Cl.[Na+] [NaDCC only, Sodium Dichloroisocyanurate]
- Plate count (CFU) (plate dilution 1:1.0E+01, 100 ul plated): 331 CFU
- % Reduction Product: 99.9715%
- CFU/ml Product: 3.31E+04 CFU/ml
- Log reduction Product: 3.54
